# Like-named read-outs stand apart in the source and are kept apart here.
# What was measured:
# Poria placenta = system: Poria placenta
# Protocol: (§1) The tests were carried out by using test specimens made from spruce or pine wood. The size of specimens made of pine was approx. 20×15×2.4 cm^3 and respectively the size of the specimens made from spruce was approx. 20×12×7.2 cm^3. One half of the wood specimens were subjected to a heat treatment at 190° C. […] One half of the specimens were subjected to no heat treatment. The wood specimens were measured and weighed before the chemical treatment. Neither chemical nor heat treatment was carried out on the reference specimens that were used in the accelerated rotting tests described below.
# (§2) The temperature of the solution was 40-50° C. In the vessel there prevailed a pressure of approx. 150 kPa (1.5 bar), by means of which the solution was “forced” into the wood. The treatment time was 2 h. After the chemical treatment the wood specimens were dried in an incubator overnight at 80-90° C.
# (§3) In the next phase the specimens treated above were sent to a rot fungus test. European standard EN 113 was applied in carrying out the test. The wood was exposed to conditions as rigorous as possible with respect to decay: temperature was approx. 30° C. and humidity 100%, and bad rot fungi such as Poria placenta, Gloeophyllum trabeum and Coniophora puteana had been introduced into the testing space (culture flask). These fungi are present in all rotting objects. The test lasted for 4 months. […] The rotting of such wood should in an accelerated rotting test be such that the weight loss is at least 20% with each fungus species. The specimens were weighed before the beginning of the test.
# (§4) The results of the accelerated rotting tests for spruce are shown in Tables 2-4 and for pine in Tables 5-7.
# Coniophora puteana = system: Coniophora puteana
# Protocol: as §1, §2, §3, §4
# Gloeophyllum trabeum = system: Gloeophyllum trabeum
# Protocol: as §1, §2, §3, §4
# [1] = system: Poria placenta, Gloeophyllum trabeum and Coniophora puteana; details: Ca formate treatment in addition to heat treatment
# Protocol: as §3, §4
# rot fungi = details: closed and humid space containing rot fungi; potassium formate dissolved in water
# Protocol: Next, a test was performed in which a piece of wood was impregnated with potassium formate. This and an untreated wood specimen were placed in a closed and humid space containing rot fungi.
# [2] = board kept several days in strong potassium formate solution; buried in garden plot from summer to following summer
# Source text: A board specimen was kept for several days in a strong potassium formate solution. After impregnation, the board was in summer buried in a garden plot together with untreated board taken from the same board specimen.
Compound,Rot resistance class according to standard EN 350-1994 (Poria placenta; treated pine),Rot resistance class according to standard EN 350-1994 (Poria placenta; treated spruce),Rot resistance class according to standard EN 350-1994 (Coniophora puteana; treated pine),Rot resistance class according to standard EN 350-1994 (Coniophora puteana; treated spruce),Rot resistance class according to standard EN 350-1994 (Gloeophyllum trabeum; treated pine),Rot resistance class according to standard EN 350-1994 (Gloeophyllum trabeum; treated spruce),Rotting of wood (overall conclusion) [1],Decay activity in the experimental space (rot fungi),Decay of impregnated board after burial [2]
"O=C[O-].O=C[O-].[Ca+2] [Ca formate, calcium formate]",Class 3,Class 3,Class 1,Class 1,Class 1,Class 1,prevented almost completely,–,–
O=C[O-].[K+] [potassium formate],–,–,–,–,–,–,–,inhibited all decay activity,without any decay

# Source: patent US20040261961A1, “Wood treatment solution and process for improving the preservation of wood” (priority 2001, published 2004)
